# Measurements from patent publication US20260174875A1 (Novo Nordisk A/S, priority 2023, published 2026).
# Marks after values point to notes of the source that are not given here. Numbered stars: 1 amine (or outer) side, 2 acyl side, 3 side chain; on linkers, the order of the positions; unused ones are H or OH. Square brackets hold non-standard residues; d marks the D form. Side chains are listed from the residue outwards. * marks the point of attachment. C18 diacid = O=C(O)CCCCCCCCCCCCCCCCC(=O)*; C16 diacid = O=C(O)CCCCCCCCCCCCCCC(=O)*; γGlu = O=C(O)[C@H](CCC(=O)[*:2])N[*:1]; AEEA = NCCOCCOCC(=O)O; Aib = CC(C)(N)C(=O)O
# Target: T1, human GIP receptor (hGIPR) (Homo sapiens, UniProt P48546)
# T1 construct: expressed in transfected cells
# T1 sequence (P48546 22-466): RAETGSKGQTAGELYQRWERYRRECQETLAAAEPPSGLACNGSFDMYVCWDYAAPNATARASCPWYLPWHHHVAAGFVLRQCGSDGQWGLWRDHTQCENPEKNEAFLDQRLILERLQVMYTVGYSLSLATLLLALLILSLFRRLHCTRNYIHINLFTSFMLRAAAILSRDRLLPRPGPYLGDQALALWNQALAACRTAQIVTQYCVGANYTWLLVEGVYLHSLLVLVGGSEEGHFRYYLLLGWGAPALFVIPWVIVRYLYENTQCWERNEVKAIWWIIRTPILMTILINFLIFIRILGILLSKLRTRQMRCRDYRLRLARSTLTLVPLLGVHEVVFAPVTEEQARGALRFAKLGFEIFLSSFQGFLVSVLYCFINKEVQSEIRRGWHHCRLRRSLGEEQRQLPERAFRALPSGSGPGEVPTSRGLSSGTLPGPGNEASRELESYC
# Test: GIP receptor assay, method A (CRE-luciferase reporter, BHK cells)
# Format: cell-based
# Conditions: hGIPR Potency, 1% HSA, EC50, method A, in the presence of 1% HSA
# Outline: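 BHK cells co-expressing hGIPR and a CRE-luciferase reporter were stimulated for 3 h at 37 °C with a 7-point, 10-fold compound titration in duplicate. Buffer was DMEM, 10 mM HEPES, 1% ovalbumin, 0.1% Pluronic F-68, without HSA or with 1% (w/v) HSA. EC50 [pM] came from four-parameter logistic fits of luminescence.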
row,Substance,EC50
1,H[Aib]HGTFTSDYSILLEEQAAREFIEWLLAGGPSSGEASHLSTAQTQRLSAK([AEEA-AEEA-γGlu-C18 diacid])LHRLATLPRTETGSGSP-NH2 [Compound 82],19.1 pM
2,Y[Aib]EGTFTSDYSILLEEQAAREFIEWLLAGGPSK([AEEA-AEEA-γGlu-C16 diacid])GAPPPSGGGEASELSTAALGRLSAELHELATLPRTETGSGSP-NH2 [compound 10],42.4 pM
3,Y[Aib]EGTFTSDYSILLEEQAAREFIEWLLAGGPSK([AEEA-AEEA-γGlu-C16 diacid])GEASELSTAALGRLSAELHELATLPRTETGSGSP-NH2 [Compound 11],58.3 pM
4,Y[Aib]EGTFTSDYSILLEEQAAREFIEWLLAGGPSK([AEEA-AEEA-γGlu-C18 diacid])GEASELSTAALGRLSAELHELATLPRTETGSGSP-NH2 [Compound 26],558 pM
5,Y[Aib]EGTFTSDYSILLEEQAAREFIEWLLAGGPSK([AEEA-AEEA-γGlu-C18 diacid])GGQAPGQAPGEASHLSTAQTQRLSAELHELATLPRTETGSGSP-NH2 [Compound 38],336 pM
6,Y[Aib]EGTFTSDYSILLEEQAAREFIEWLLAGGPSSGAGQAPGASHLSTAQTQRLSAELHK([AEEA-AEEA-γGlu-C18 diacid])LATLPRTETGSGSP-NH2 [Compound 97],8.38 pM
7,Y[Aib]EGTFTSDYSILLEEQAAREFIEWLLAGGPSSGAGQAPGQAPGASHLSTAALGRLSAELHK([AEEA-AEEA-γGlu-C18 diacid])LATLPRTETGSGSP-NH2 [Compound 53],14.6 pM
8,Y[Aib]EGTFTSDYSILLEEQAAREFIEWLLAGGPSSGAGQAPGQAPGASHLSTAQTQRLSAELHRLATLPK([AEEA-AEEA-γGlu-C18 diacid])TETGSGSP-NH2 [Compound 57],5.85 pM

# Same assay, conditions: method A, absence of HSA; read-out: hGIPR Potency, no HSA, EC50
row,Substance,EC50
1,H[Aib]HGTFTSDYSILLEEQAAREFIEWLLAGGPSSGEASHLSTAQTQRLSAK([AEEA-AEEA-γGlu-C18 diacid])LHRLATLPRTETGSGSP-NH2 [Compound 82],3.7 pM
2,Y[Aib]EGTFTSDYSILLEEQAAREFIEWLLAGGPSK([AEEA-AEEA-γGlu-C16 diacid])GAPPPSGGGEASELSTAALGRLSAELHELATLPRTETGSGSP-NH2 [compound 10],2.11 pM
3,Y[Aib]EGTFTSDYSILLEEQAAREFIEWLLAGGPSK([AEEA-AEEA-γGlu-C16 diacid])GEASELSTAALGRLSAELHELATLPRTETGSGSP-NH2 [Compound 11],1.69 pM
4,Y[Aib]EGTFTSDYSILLEEQAAREFIEWLLAGGPSK([AEEA-AEEA-γGlu-C18 diacid])GEASELSTAALGRLSAELHELATLPRTETGSGSP-NH2 [Compound 26],1.75 pM
5,Y[Aib]EGTFTSDYSILLEEQAAREFIEWLLAGGPSK([AEEA-AEEA-γGlu-C18 diacid])GGQAPGQAPGEASHLSTAQTQRLSAELHELATLPRTETGSGSP-NH2 [Compound 38],1.37 pM
6,Y[Aib]EGTFTSDYSILLEEQAAREFIEWLLAGGPSSGAGQAPGASHLSTAQTQRLSAELHK([AEEA-AEEA-γGlu-C18 diacid])LATLPRTETGSGSP-NH2 [Compound 97],2.3 pM
7,Y[Aib]EGTFTSDYSILLEEQAAREFIEWLLAGGPSSGAGQAPGQAPGASHLSTAALGRLSAELHK([AEEA-AEEA-γGlu-C18 diacid])LATLPRTETGSGSP-NH2 [Compound 53],3.25 pM
8,Y[Aib]EGTFTSDYSILLEEQAAREFIEWLLAGGPSSGAGQAPGQAPGASHLSTAQTQRLSAELHRLATLPK([AEEA-AEEA-γGlu-C18 diacid])TETGSGSP-NH2 [Compound 57],1.98 pM

# System: Male Sprague Dawley (SD) rats
# Test: Efficacy testing on appetite: acute food intake in ad libitum fed normal weight rats
# Format: in vivo, rat
# Conditions: single dose 10 nmol/kg, day 1 [0-24 hours]
# Text: Male Sprague Dawley (SD) rats from Taconic, Denmark were used for the acute food intake experiments, wherein the principles of laboratory animal care were followed.
# The rats arrived at least 10-14 days before the start of the experiment to allow acclimatization to experimental settings. During this period, the animals were handled (fixation by restrain in neck skin) at least 2 times. Immediately upon arrival, rats were changed to a reversed light cycle (dark from 11 am-11 pm) and were transferred to an automated food intake measuring system (HM2 system, MBRose; Faaborg, Denmark). […] To enable recording of individual food intake, rats were ID chipped. Three rats were housed in each cage. During the acclimatization period, in which the rats get used to the new light cycle and diet (LF 10% (D12450B), from Research Diets Inc.), the animals had free access to food and water. Since rats are normally active and consume most of their daily calories during the dark period, rats were dosed in the morning right before lights were turned off. Such a set-up results in the lowest data variation and highest test sensitivity. […] In each cage there were animals from three different treatment groups (to eliminate potential cage effects (e.g. cage malfunction) on primary readout: food intake). The rats were dosed once subcutaneously (s.c.) with the peptide of interest according to body weight (10 or 30 nmol/kg) in vehicle (0.5 ml/kg) using a NovoPen® (Novo Nordisk, Bagsvæed, Denmark).
# The compounds of the invention were formulated (20 or 60 nmol/ml) in the following vehicle: 8 mM phosphate; 250 mM glycerol; 0.007% polysorbate 20, pH 7.4.
# After dosing, the rats were returned to their home cages, where they continued to have ad libitum access to chow and water. The food consumption was recorded individually and continuously by the HM2 system from 0-72 h after test compound administration. Data obtained by the HM-2 system were stored in a HMBase SQL database (Firebird® relational database management system) and were processed by HM2Lab software (MBRose; Faaborg, Denmark) installed in an embedded computer. The feeding system is a highly sensitive system with a load resolution of 0.001 g.
row,Substance,Food intake (relative to vehicle) Day 1
1,H[Aib]HGTFTSDYSILLEEQAAREFIEWLLAGGPSSGEASHLSTAQTQRLSAK([AEEA-AEEA-γGlu-C18 diacid])LHRLATLPRTETGSGSP-NH2 [Compound 82],−94%
2,Y[Aib]EGTFTSDYSILLEEQAAREFIEWLLAGGPSK([AEEA-AEEA-γGlu-C16 diacid])GAPPPSGGGEASELSTAALGRLSAELHELATLPRTETGSGSP-NH2 [compound 10],−20* %
3,Y[Aib]EGTFTSDYSILLEEQAAREFIEWLLAGGPSK([AEEA-AEEA-γGlu-C18 diacid])GGQAPGQAPGEASHLSTAQTQRLSAELHELATLPRTETGSGSP-NH2 [Compound 38],−3%
4,Y[Aib]EGTFTSDYSILLEEQAAREFIEWLLAGGPSSGAGQAPGASHLSTAQTQRLSAELHK([AEEA-AEEA-γGlu-C18 diacid])LATLPRTETGSGSP-NH2 [Compound 97],−65%
5,Y[Aib]EGTFTSDYSILLEEQAAREFIEWLLAGGPSSGAGQAPGQAPGASHLSTAALGRLSAELHK([AEEA-AEEA-γGlu-C18 diacid])LATLPRTETGSGSP-NH2 [Compound 53],−75%
6,Y[Aib]EGTFTSDYSILLEEQAAREFIEWLLAGGPSSGAGQAPGQAPGASHLSTAQTQRLSAELHRLATLPK([AEEA-AEEA-γGlu-C18 diacid])TETGSGSP-NH2 [Compound 57],−75%

# Same assay, conditions: single dose 10 nmol/kg, day 2 [24-48 hours]
row,Substance,Food intake (relative to vehicle) Day 2
1,H[Aib]HGTFTSDYSILLEEQAAREFIEWLLAGGPSSGEASHLSTAQTQRLSAK([AEEA-AEEA-γGlu-C18 diacid])LHRLATLPRTETGSGSP-NH2 [Compound 82],−73%
2,Y[Aib]EGTFTSDYSILLEEQAAREFIEWLLAGGPSK([AEEA-AEEA-γGlu-C16 diacid])GAPPPSGGGEASELSTAALGRLSAELHELATLPRTETGSGSP-NH2 [compound 10],−4%
3,Y[Aib]EGTFTSDYSILLEEQAAREFIEWLLAGGPSK([AEEA-AEEA-γGlu-C18 diacid])GGQAPGQAPGEASHLSTAQTQRLSAELHELATLPRTETGSGSP-NH2 [Compound 38],−19%
4,Y[Aib]EGTFTSDYSILLEEQAAREFIEWLLAGGPSSGAGQAPGASHLSTAQTQRLSAELHK([AEEA-AEEA-γGlu-C18 diacid])LATLPRTETGSGSP-NH2 [Compound 97],−82%
5,Y[Aib]EGTFTSDYSILLEEQAAREFIEWLLAGGPSSGAGQAPGQAPGASHLSTAALGRLSAELHK([AEEA-AEEA-γGlu-C18 diacid])LATLPRTETGSGSP-NH2 [Compound 53],−90%
6,Y[Aib]EGTFTSDYSILLEEQAAREFIEWLLAGGPSSGAGQAPGQAPGASHLSTAQTQRLSAELHRLATLPK([AEEA-AEEA-γGlu-C18 diacid])TETGSGSP-NH2 [Compound 57],−88%

# Same assay, conditions: single dose 10 nmol/kg, day 3 [48-72 hours]
row,Substance,Food intake (relative to vehicle) Day 3
1,H[Aib]HGTFTSDYSILLEEQAAREFIEWLLAGGPSSGEASHLSTAQTQRLSAK([AEEA-AEEA-γGlu-C18 diacid])LHRLATLPRTETGSGSP-NH2 [Compound 82],−27%
2,Y[Aib]EGTFTSDYSILLEEQAAREFIEWLLAGGPSK([AEEA-AEEA-γGlu-C16 diacid])GAPPPSGGGEASELSTAALGRLSAELHELATLPRTETGSGSP-NH2 [compound 10],−4%
3,Y[Aib]EGTFTSDYSILLEEQAAREFIEWLLAGGPSK([AEEA-AEEA-γGlu-C18 diacid])GGQAPGQAPGEASHLSTAQTQRLSAELHELATLPRTETGSGSP-NH2 [Compound 38],1%
4,Y[Aib]EGTFTSDYSILLEEQAAREFIEWLLAGGPSSGAGQAPGASHLSTAQTQRLSAELHK([AEEA-AEEA-γGlu-C18 diacid])LATLPRTETGSGSP-NH2 [Compound 97],−42%
5,Y[Aib]EGTFTSDYSILLEEQAAREFIEWLLAGGPSSGAGQAPGQAPGASHLSTAALGRLSAELHK([AEEA-AEEA-γGlu-C18 diacid])LATLPRTETGSGSP-NH2 [Compound 53],−33%
6,Y[Aib]EGTFTSDYSILLEEQAAREFIEWLLAGGPSSGAGQAPGQAPGASHLSTAQTQRLSAELHRLATLPK([AEEA-AEEA-γGlu-C18 diacid])TETGSGSP-NH2 [Compound 57],−14%

# Same assay, conditions: single dose 30 nmol/kg, day 1 [0-24 hours]
row,Substance,Food intake (relative to vehicle) Day 1
1,Y[Aib]EGTFTSDYSILLEEQAAREFIEWLLAGGPSK([AEEA-AEEA-γGlu-C16 diacid])GEASELSTAALGRLSAELHELATLPRTETGSGSP-NH2 [Compound 11],−46%
2,Y[Aib]EGTFTSDYSILLEEQAAREFIEWLLAGGPSK([AEEA-AEEA-γGlu-C18 diacid])GEASELSTAALGRLSAELHELATLPRTETGSGSP-NH2 [Compound 26],−11%

# Same assay, conditions: single dose 30 nmol/kg, day 2 [24-48 hours]
row,Substance,Food intake (relative to vehicle) Day 2
1,Y[Aib]EGTFTSDYSILLEEQAAREFIEWLLAGGPSK([AEEA-AEEA-γGlu-C16 diacid])GEASELSTAALGRLSAELHELATLPRTETGSGSP-NH2 [Compound 11],−45%
2,Y[Aib]EGTFTSDYSILLEEQAAREFIEWLLAGGPSK([AEEA-AEEA-γGlu-C18 diacid])GEASELSTAALGRLSAELHELATLPRTETGSGSP-NH2 [Compound 26],−18%

# Same assay, conditions: single dose 30 nmol/kg, day 3 [48-72 hours]
row,Substance,Food intake (relative to vehicle) Day 3
1,Y[Aib]EGTFTSDYSILLEEQAAREFIEWLLAGGPSK([AEEA-AEEA-γGlu-C16 diacid])GEASELSTAALGRLSAELHELATLPRTETGSGSP-NH2 [Compound 11],−27%
2,Y[Aib]EGTFTSDYSILLEEQAAREFIEWLLAGGPSK([AEEA-AEEA-γGlu-C18 diacid])GEASELSTAALGRLSAELHELATLPRTETGSGSP-NH2 [Compound 26],0%
